US10626113B2, “Phosphodiesterase inhibitors and uses thereof” (THE TRUSTEES OF COLUMBIA UNIVERSITY IN THE CITY OF NEW YORK, priority 2012, dated 2020)
Read-outs that look alike come from different tables or passages of the source.

Legend:
[1] = tested on: APP/PS1 mice; assay: 2-day radial arm water maze (reference memory); assay type: in vivo; settings: 3 mg/kg i.p. for 3 weeks
Description: The radial arm water maze task, a hybrid of the classic Morris Water Maze and the radial arm land maze, was performed as described in J. Alamed, D. M. Wilcock, D. M. Diamond, M. N. Gordon, D. Morgan, Two-day radial-arm water maze learning and memory task; robust resolution of amyloid-related memory deficits in transgenic mice, Nat. Prot. 1 (2006) 1671-1679, herein incorporated by reference in its entirety. The mouse had to swim in 6 alleys (arms) radiating from a central area until it found a hidden (submerged) platform at the end of one of the arms, based on visual cues placed in the room. The first day of the protocol was a training day on which mice were trained to identify the platform location by alternating between a visible and a hidden platform in a goal arm. The final 3 trials on that day and all 15 trials on day 2 used a hidden escape platform to force mice to use spatial cues to identify the location of the goal arm. […] The number of incorrect arm entries (entries to arms with no platform) was counted. […] Failure to select an arm after 15 sec was counted as an error and the mouse was returned to the start arm. […] For data analysis, averages for each mouse were calculated using blocks of 3 trials. […]

[2] = Pharmacokinetic study in mice; assay type: in vivo; settings: 25 mg/kg i.p.
[3] = Acute toxicity study with histology; assay type: in vivo; settings: 120 or 240 mg/kg, i.p.
Source text: Brain, muscle, kidney, and liver were harvested from each mouse, and tissue from each organ was examined histologically by a board-certified pathologist for signs of toxicity.

[4] = tested on: APP/PS1 mice; assay: Contextual fear conditioning (fear memory); assay type: in vivo; settings: 3 mg/kg i.p. for 3 weeks
Description: Fear conditioning was assessed as described in B. Gong, O. V. Vitolo, F. Trinchese, S. Liu, M. Shelanski, O. Arancio, Persistent improvement in synaptic and cognitive functions in an Alzheimer mouse model after rolipram treatment, J. Clin. Invest. 114 (2004) 1624-1634; F. Trinchese, S. Liu, F. Battaglia, S. Walter, P. M. Mathews, O. Arancio, Progressive age-related development of Alzheimer-like pathology in APP/PS1 mice, Ann. Neurol. 55 (2004) 801-814; and B. Gong, Z. Cao, P. Zheng, O. V. Vitolo, S. Liu, A. Staniszewski, D. Moolman, H. Zhang, M. Shelanski, O. Arancio, Ubiquitin hydrolase Uch-L1 rescues beta-amyloid-induced decreases in synaptic function and contextual memory, Cell 126 (2006) 775-788; each herein incorporated by reference in its entirety. […] Freezing behavior, defined as the absence of movements except for respiratory excursions, was scored using Freezeview software (Med Associates, St. Albans, Vt.). Contextual fear learning was evaluated 24 hrs after training by measuring freezing responses for 5 min in the same chamber where the mice were trained. Cued fear learning was evaluated 24 hrs after contextual testing. The mice were placed in a novel context for 2 min (pre-CS test), after which they were given a CS for 3 min (CS test), and freezing behavior was measured during the first 30 sec that mimic the CS-US conditioning and the remaining 2.5 min. […]

[5] = tested on: LTP at the CA3-CA1 connection of hippocampal slices; assay: Long-term potentiation in hippocampal slices, compound in bath perfusion; set-up: species or system mice; settings: 50 nM bath perfusion
[6] = tested on: hippocampal cGMP levels; assay: Hippocampal cGMP assay after foot shock; assay type: in vivo, mice
Description: The hippocampal samples were extracted and snap frozen in liquid nitrogen. Levels of cGMP were quantitated by Enzyme Immunoassay procedure (Cayman Chemical Company, Item no. 581021) following the manufacturer's guidelines in duplicate. cGMP levels were normalized with the protein concentration calculated using BCA Protein Assay Reagent (Thermo Scientific).
cGMP levels in adult mice after treatment with compound H were measured. In a series of preliminary experiments, foot shock induces an immediate increase in cGMP levels in the hippocampus (FIG. 1). Concentration of cGMP was measured by enzyme immunoassay. Basal represents cGMP levels without foot shock. Values are the mean of duplicate determinations. Error bars show S.E.M. (n=3 per group); *p<0.01; ^‡p=0.033.

With `COc1ccc(CNc2c3c(nc4ccc(C#N)cc24)CCN(C(C)=O)C3)cc1Cl` [Compound H, 2-acetyl-10-[(3-chloro-4-methoxybenzyl)amino]-1,2,3,4-tetrahydrobenzo[b][1,6]naphthyridine-8-carbonitrile] the “effect on reference memory of WT mice (2-day RAWM)” value [1] was “no effect”, the “Cmax, brain” value ([2]; male C57Bl6 mice) was 492.25 ng/g and the “Tmax, brain” value ([2]; male C57Bl6 mice) was 15 min. The “Tmax, plasma” value ([2]; male C57Bl6 mice) was 15 min, the “t1/2 elimination half-life, brain” value ([2]; male C57Bl6 mice) was 39 min and the “t1/2 elimination half-life, plasma” value ([2]; male C57Bl6 mice) was 64.2 min. For the same molecule, the brain/plasma Cmax ratio ([2]; male, C57Bl6, mouse, brain/plasma, ip, 25 mg/kg) was 0.31, the MRT ([2]; mouse, brain, ip, male C57Bl6 mice, read-out: MRT Mean Residence Time, brain) was 57 min and the Cmax ([2]; mouse, plasma, ip, male C57Bl6 mice) was 1570 ng/mL. The MRT ([2]; mouse, plasma, ip, male C57Bl6 mice, read-out: MRT Mean Residence Time, plasma) was 93.6 min, the “brain sections, CD45 immunostain” value [3] was “no signs of inflammation” and the “brain sections, GFAP immunostain” value [3] was “no signs of gliosis”. For the same molecule, the “brain sections, H&E” value [3] was “did not show any signs of toxicity”, the “brain sections, LFB-PAS stain” value [3] was “no signs of demyelination” and the “kidney sections, H&E” value [3] was “no toxicity”. The “kidney sections, PAS stain” value [3] was “did not show any abnormalities in the glomerular basement membrane”, the “kidney sections, trichrome stain” value [3] was “no fibrosis” and the “liver sections, H&E” value [3] was “did not show any signs of toxicity”. The “liver sections, trichrome stain” value [3] was “no fibrosis or cirrhotic liver disease”, the “muscle sections, H&E” value [3] was “no signs of toxicity” and the “muscle sections, trichrome stain” value [3] was “no muscle fibrosis”. For the same molecule, the “effect on contextual fear memory of WT mice” value [4] was “no effect”, the “effect on LTP of WT slices” value [5] was “no effect” and the “hippocampal cGMP level” value ([6]; 3 mg/kg i.p. 30 min before foot shock, 10 sec after shock) was 0.48 ± 0.014 pmol/mg. For the same molecule, the “hippocampal cGMP level” value ([6]; 3 mg/kg i.p. 30 min before foot shock, 60 sec after shock) was 0.58 ± 0.033 pmol/mg, the “hippocampal cGMP level” value ([6]; 3 mg/kg i.p. 30 min before foot shock, 180 sec after shock) was 0.58 ± 0.044 pmol/mg and the “hippocampal cGMP level” value ([6]; 10 mg/Kg i.p. 30 min before foot shock, 10 sec after shock) was 0.56 ± 0.033 pmol/mg. The “hippocampal cGMP level” value ([6]; 10 mg/Kg i.p. 30 min before foot shock, 60 sec after shock) was 0.70 ± 0.028 pmol/mg and the “hippocampal cGMP level” value ([6]; 10 mg/Kg i.p. 30 min before foot shock, 180 sec after shock) was 0.63 ± 0.013 pmol/mg.
